# Experimental data reported in article PMC10949010, “A myo-inositol dehydrogenase involved in aminocyclitol biosynthesis of hygromycin A” (Beilstein Journal of Organic Chemistry, 2024).
# How the values were obtained:
# [1] = biological target: T1, Hyg17 (Streptomyces leeuwenhoekii, UniProt A0A0F7VN41); assay: NADH formation, absorbance at […] nm, initial rates […]-5 min; format: biochemical; details: 100 mM CAPS, 50 mM NaCl, pH 10.5, 25 °C
# T1 construct: cloned NdeI/XhoI in pTip-QC1, expressed in Rhodococcus jostii RHA1, Ni-NTA and size exclusion; primers encode N-terminus MTVAVVG and C-terminus SVPVAP before LE (XhoI)
# T1 sequence (A0A0F7VN41 whole entry): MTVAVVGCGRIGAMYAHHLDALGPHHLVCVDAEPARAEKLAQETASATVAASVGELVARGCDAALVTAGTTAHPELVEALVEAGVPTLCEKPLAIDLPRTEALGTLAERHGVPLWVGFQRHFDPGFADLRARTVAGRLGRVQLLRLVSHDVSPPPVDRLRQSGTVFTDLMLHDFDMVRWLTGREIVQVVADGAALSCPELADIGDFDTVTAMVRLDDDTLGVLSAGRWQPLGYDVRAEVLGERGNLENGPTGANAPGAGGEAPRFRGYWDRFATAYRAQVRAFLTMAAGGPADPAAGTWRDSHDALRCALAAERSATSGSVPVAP
# [2] = biological target: T2, BsIDH (Bacillus subtilis, UniProt P26935); assay: thin-layer chromatography of ketone product; format: biochemical; details: 10 mM myo-inositol, 10 mM NAD+, 100 mM CAPS, 50 mM NaCl, pH 10.5
# T2 construct: gene iolG; codon-optimised synthetic gene in pET28a, expressed in E. coli BL21 star (DE3), Ni-NTA and size exclusion
# T2 sequence (P26935 whole entry): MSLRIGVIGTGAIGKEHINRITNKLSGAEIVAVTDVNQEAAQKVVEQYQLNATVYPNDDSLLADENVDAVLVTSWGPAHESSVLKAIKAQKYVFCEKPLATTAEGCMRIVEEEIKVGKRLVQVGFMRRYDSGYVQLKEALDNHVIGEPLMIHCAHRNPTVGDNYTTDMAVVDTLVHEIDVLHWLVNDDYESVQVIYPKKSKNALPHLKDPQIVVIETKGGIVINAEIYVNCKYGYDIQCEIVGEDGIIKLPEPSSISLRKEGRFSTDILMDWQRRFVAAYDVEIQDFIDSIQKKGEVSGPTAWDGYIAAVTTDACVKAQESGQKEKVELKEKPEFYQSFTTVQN
Km ([1]; 10 mM myo-inositol) [mM],Km ([1]; 10 mM NAD+) [mM],Structure (SMILES),thin-layer chromatography of ketone product [2]
4.2 ± 0.49,–,NC(=O)c1ccc[n+]([C@@H]2O[C@H](COP(=O)(O)OP(=O)(O)OC[C@H]3O[C@@H](n4cnc5c(N)ncnc54)[C@H](O)[C@@H]3O)[C@@H](O)[C@H]2O)c1 [NAD^+],–
–,20.3 ± 3.3,O[C@H]1[C@H](O)[C@@H](O)[C@H](O)[C@@H](O)[C@@H]1O [scyllo-inositol],–
–,9 ± 1.1,O[C@H]1[C@H](O)[C@@H](O)[C@H](O)[C@@H](O)[C@H]1O [myo-inositol],We found that both enzymes generated a ketone product with identical retention factors
